Reference: patent publication US5416222A, “3-pyrrolidine methanamines wherein the alpha-carbon is substituted by 1 or 2 lower alkyl groups which are intermediates for pyridone-carboxylic acid derivatives” (Daiichi Seiyaku Co., Ltd., priority 1985, dated 1995)
Values after ≈ are worked out from the molar mass of the structure shown.

Experiments:
[1] = system: E. coli, NIHJ; assay: antimicrobial activity, MIC, standard process of Japan Society of Chemotherapy; type: cell-based; conditions: for MIC: Escherichia coli, read-out: minimum growth inhibitory concentration (MIC)
Procedure: (§1) The antimicrobial activities of the compounds of the present invention were determined according to a standard process designated by the Japan Society of Chemotherapy and the minimum growth inhibitory concentrations (MIC) (μg/ml) the compounds were determined.

[2] = system: Pr. mirabilis, IF03849; assay: as above; type: cell-based; conditions: for MIC: Proteus mirabilis, IF03849, Pr. mirabilis, read-out: minimum growth inhibitory concentration (MIC)
Procedure: as §1

[3] = system: Pr. vulgaris, 3167; assay: as above; type: cell-based; conditions: for MIC: Proteus vulgaris, 3167, Pr. vulgaris, read-out: minimum growth inhibitory concentration (MIC)
Procedure: as §1

[4] = system: Ps. aeruginosa, 2063; assay: as above; type: cell-based; conditions: for MIC: Pseudomonas aeruginosa, 2063, Ps. aeruginosa, read-out: minimum growth inhibitory concentration (MIC)
Procedure: as §1

[5] = system: Ps. aeruginosa, 2128; assay: as above; type: cell-based; conditions: for MIC: Pseudomonas aeruginosa, 2128, Ps. aeruginosa, read-out: minimum growth inhibitory concentration (MIC)
Procedure: as §1

[6] = system: Ps. cepacia, IID1340; assay: as above; type: cell-based; conditions: for MIC: Burkholderia cepacia, IID1340, Ps. cepacia, read-out: minimum growth inhibitory concentration (MIC)
Procedure: as §1

[7] = system: Ps. maltophilia, IID1275; assay: as above; type: cell-based; conditions: for MIC: Stenotrophomonas maltophilia, IID1275, Ps. maltophilia, read-out: minimum growth inhibitory concentration (MIC)
Procedure: as §1

[8] = system: S. aureus, 209P; assay: as above; type: cell-based; conditions: for MIC: Staphylococcus aureus, read-out: minimum growth inhibitory concentration (MIC)
Procedure: as §1

[9] = system: Ser. marcescens, 13001; assay: as above; type: cell-based; conditions: for MIC: Serratia marcescens, 13001, Ser. marcescens, read-out: minimum growth inhibitory concentration (MIC)
Procedure: as §1

[10] = system: Sh. flexneri, 2a5503; assay: as above; type: cell-based; conditions: for MIC: Shigella flexneri, read-out: minimum growth inhibitory concentration (MIC)
Procedure: as §1

[11] = system: Str. faecalis, ATCC 19433; assay: as above; type: cell-based; conditions: for MIC: Enterococcus faecalis, ATCC19433, Str. faecalis, read-out: minimum growth inhibitory concentration (MIC)
Procedure: as §1

[12] = system: Str. pyogenes, G-36; assay: as above; type: cell-based; conditions: for MIC: Streptococcus pyogenes, G36, Str. pyogenes, read-out: minimum growth inhibitory concentration (MIC)
Procedure: as §1

[13] = physchem; type: physicochemical; conditions: water
Procedure: (§2) The water-solubility and acute toxicity of the compounds of the present invention and the comparative compounds, were measured. The results obtained are shown hereunder. The water-solubility was measured by the following method.
(i) Preparation of standard solution
About 400 μg of the sample to be measured was accurately weighed (the weight was defined as W μg), and 0.1N NaOH solution was added thereto to bring the whole volume to 50 ml. The UV absorbance of a given amount of the solution was measured and the measured absorbance was defined as A1.
(ii) Preparation of sample to be measured
Distilled water was added to the sample to be measured (fine powder) in such amount that the sample was not completely dissolved but suspended, and then the suspension was vigorously agitated at room temperature (between 23° and 26° C.) for 30 minutes. Insoluble matter of the sample was removed therefrom by filtration, after which 3 ml sample of the filtrate (satulated aqueous solution of the sample) was taken. 3 ml of 0.2N NaOH solution was added to the filtrate sample to bring the total volume to 6 ml (i.e. the filtrate was diluted to 50% concentration.) To 1 ml of the resulting solution, 0.1N NaOH solution was further added to bring the total volume to 25 ml […]. In this connection, degree of dilution was occasionally changed, depending on degree of UV absorbance. The UV absorbance of the given amount of the solution was measured and the resulting absorbance was defined to as A2. Where the number of dilution is N, water-solubility (s) is obtained from the following equation: [formula]

[14] = system: mouse; assay: acute toxicity to mouse; type: in vivo; conditions: 200 mg/kg; i.v.
Procedure: as §2
*200 mg/kg; i.v, (deaths/total number) As is obvious from the above

[15] = absorption after oral administration to rats; type: in vivo; conditions: rat, 20 mg/kg; for half-life: serum half life, 0.693/Kel; for Cmax / AUC(0-t) at 6 h: serum; for Cmax: 5 rats per group; for AUC(0-t) at 6 h: zero to 6 h, trapezoidal method, read-out: AUC0-6H
Procedure: The compounds of the present invention and the comparative compound were orally given to rats (one group: 5 rats) at a dose of 20 mg/kg to measure the oral absorption of the compounds. The concentration of the compound in the blood of the rat was measured at 15 minutes, 30 minutes, and 1, 2, 3, 4, and 6 hours after administration.
Serum half lives (T1/2) were calculated as 0.693/Kel, where Kel is the elimination rate constant determined by linear regression analysis of the natural logarithm of serum concentration-time data. The area under the serum concentration-versus time curve from zero to 6 h (AUC0-6H) was calculated by the trapezoidal method, The results obtained are as follows: […]

[16] = in words, prior art discussion; cited from earlier work
[17] = system: Gram-negative microorganisms; conditions: in words, prior art discussion; cited from earlier work
[18] = system: S. epidermidis, 56500; assay: antimicrobial activity, MIC, standard process of Japan Society of Chemotherapy; type: cell-based; conditions: for MIC: Staphylococcus epidermidis, 56500, S. epidermidis, read-out: minimum growth inhibitory concentration (MIC)
Procedure: as §1

CNCC1CCN(c2c(F)cc3c(=O)c(C(=O)O)cn(C4CC4)c3c2F)C1 (stereo not drawn) [Compound B, 1-cyclopropyl-6,8-difluoro-(3-methylaminomethyl-1-pyrolidinyl)-1,4-dihydro-4-oxoquinoline-3-carboxylic acid, reference compound]
MIC [1]: ≤ 0.05 µg/mL | MIC [2]: ≤ 0.05 µg/mL | MIC [3]: ≤ 0.05 µg/mL | MIC [4]: 0.2 µg/mL (≈ 0.53 µM) | MIC [5]: 0.2 µg/mL (≈ 0.53 µM) | MIC [6]: 1.56 µg/mL (≈ 4.13 µM) | MIC [7]: 0.2 µg/mL (≈ 0.53 µM) | MIC [8]: ≤ 0.05 µg/mL | MIC [9]: ≤ 0.05 µg/mL | MIC [10]: 0.1 µg/mL (≈ 0.265 µM) | MIC [11]: 0.1 µg/mL (≈ 0.265 µM) | MIC [12]: 0.1 µg/mL (≈ 0.265 µM) | solubility at 0.5 h [13]: 80 µg/mL (≈ 212 µM) | Acute toxicity to mouse [14]: 2/5 | half-life [15]: 93 min | Cmax [15]: 1370 ng/mL | AUC(0-t) at 6 h [15]: 3610 ng·h/mL | water-solubility (prior art compounds) [16]: extremely low water-solubility | antimicrobial activity against Gram-negative microorganisms (prior art compounds) [17]: strong antimicrobial activity

CCNCC1CCN(c2c(F)cc3c(=O)c(C(=O)O)cn(C4CC4)c3c2F)C1 (stereo not drawn) [Compound A, 1-cyclopropyl-6,8-difluoro-(3-ethylaminomethyl-1-pyrolidinyl)-1,4-dihydro-4-oxoquinoline-3-carboxylic acid, reference compound]
MIC [1]: ≤ 0.05 µg/mL | MIC [2]: ≤ 0.05 µg/mL | MIC [3]: 0.1 µg/mL (≈ 0.255 µM) | MIC [4]: 0.39 µg/mL (≈ 0.996 µM) | MIC [5]: 0.2 µg/mL (≈ 0.511 µM) | MIC [6]: 0.78 µg/mL (≈ 1.99 µM) | MIC [7]: 0.39 µg/mL (≈ 0.996 µM) | MIC [8]: ≤ 0.05 µg/mL | MIC [18]: ≤ 0.05 µg/mL | MIC [9]: 0.1 µg/mL (≈ 0.255 µM) | MIC [10]: ≤ 0.05 µg/mL | MIC [11]: 0.1 µg/mL (≈ 0.255 µM) | MIC [12]: 0.1 µg/mL (≈ 0.255 µM) | solubility at 0.5 h [13]: 40 µg/mL (≈ 102 µM) | Acute toxicity to mouse [14]: 3/5 | water-solubility (prior art compounds) [16]: extremely low water-solubility | antimicrobial activity against Gram-negative microorganisms (prior art compounds) [17]: strong antimicrobial activity

CNC(C)C1CCN(c2c(F)cc3c(=O)c(C(=O)O)cn(C4CC4)c3c2F)C1 (single isomer, unassigned) [Example 7]
minimum growth inhibitory concentration (MIC) [1]: ≤ 0.05 µg/mL | minimum growth inhibitory concentration (MIC) ([2]; Pr. mirabilis): ≤ 0.05 µg/mL | minimum growth inhibitory concentration (MIC) ([3]; Pr. vulgaris): ≤ 0.05 µg/mL | minimum growth inhibitory concentration (MIC) ([4]; Ps. aeruginosa): 0.20 µg/mL | minimum growth inhibitory concentration (MIC) ([5]; Ps. aeruginosa): 0.10 µg/mL | minimum growth inhibitory concentration (MIC) ([6]; Ps. cepacia): 0.78 µg/mL | minimum growth inhibitory concentration (MIC) ([7]; Ps. maltophilia): 0.20 µg/mL | minimum growth inhibitory concentration (MIC) [8]: ≤ 0.05 µg/mL | minimum growth inhibitory concentration (MIC) ([18]; S. epidermidis): ≤ 0.05 µg/mL | minimum growth inhibitory concentration (MIC) ([9]; Ser. marcescens): 0.10 µg/mL | minimum growth inhibitory concentration (MIC) [10]: ≤ 0.05 µg/mL | minimum growth inhibitory concentration (MIC) ([11]; Str. faecalis): ≤ 0.05 µg/mL | minimum growth inhibitory concentration (MIC) ([12]; Str. pyogenes): ≤ 0.05 µg/mL | solubility at 0.5 h [13]: 710 µg/mL (≈ 1810 µM) | Acute toxicity to mouse [14]: 1/5 | half-life [15]: 121 min | Cmax [15]: 2210 ng/mL | AUC(0-t) at 6 h [15]: 6310 ng·h/mL

CC(C)(N)C1CCN(c2nc3c(cc2F)c(=O)c(C(=O)O)cn3C2CC2)C1 (stereo not drawn) [Example 13, 7-[3-(1-Amino-1-methyl)ethyl-1-pyrrolidinyl]-1-cyclo-propyl-6-difluoro-1,4-dihydro-4-oxo-1,8-naphthyridine-3-carboxylic acid]
MIC [1]: ≤ 0.05 µg/mL | MIC [2]: 0.39 µg/mL (≈ 1.04 µM) | MIC [3]: 0.1 µg/mL (≈ 0.267 µM) | MIC [4]: 0.39 µg/mL (≈ 1.04 µM) | MIC [5]: 0.2 µg/mL (≈ 0.534 µM) | MIC [6]: 0.78 µg/mL (≈ 2.08 µM) | MIC [7]: 0.2 µg/mL (≈ 0.534 µM) | MIC [8]: ≤ 0.05 µg/mL | MIC [18]: ≤ 0.05 µg/mL | MIC [9]: 0.2 µg/mL (≈ 0.534 µM) | MIC [10]: ≤ 0.05 µg/mL | MIC [11]: 0.2 µg/mL (≈ 0.534 µM) | MIC [12]: 0.1 µg/mL (≈ 0.267 µM) | solubility at 0.5 h [13]: 2000 µg/mL (≈ 5340 µM) | Acute toxicity to mouse [14]: 1/5 | half-life [15]: 145 min | Cmax [15]: 2140 ng/mL | AUC(0-t) at 6 h [15]: 7950 ng·h/mL

CC(C)(N)C1CCN(c2c(F)cc3c(=O)c(C(=O)O)cn(C4CC4)c3c2F)C1 (stereo not drawn) [Example 11, 7-[3-(1-Amino-1-methyl)ethyl-1-pyrrolidinyl]-1-cyclopropyl-6,8-difluoro-1,4-dihydro-4-oxoquinoline-3-carboxylic acid]
MIC [1]: ≤ 0.05 µg/mL | MIC [2]: 0.1 µg/mL (≈ 0.255 µM) | MIC [3]: ≤ 0.05 µg/mL | MIC [4]: 0.78 µg/mL (≈ 1.99 µM) | MIC [5]: 0.2 µg/mL (≈ 0.511 µM) | MIC [6]: 0.78 µg/mL (≈ 1.99 µM) | MIC [7]: 0.1 µg/mL (≈ 0.255 µM) | MIC [8]: ≤ 0.05 µg/mL | MIC [18]: ≤ 0.05 µg/mL | MIC [9]: 0.1 µg/mL (≈ 0.255 µM) | MIC [10]: ≤ 0.05 µg/mL | MIC [11]: ≤ 0.05 µg/mL | MIC [12]: ≤ 0.05 µg/mL | solubility at 0.5 h [13]: 200 µg/mL (≈ 511 µM) | Acute toxicity to mouse [14]: 0/5 | half-life [15]: 136 min | Cmax [15]: 2100 ng/mL | AUC(0-t) at 6 h [15]: 6430 ng·h/mL
